Experimental data from patent US9604982B2, “P2X7 modulators” (Janssen Pharmaceutica NV, priority 2013, dated 2017).

Target: P2X7 (Homo sapiens (Human), UniProt Q99572)
Test: P2X7 antagonism in human peripheral blood mononuclear cells (PBMCs), IL-1β release after LPS + Bz-ATP (ELISA)
Format: cell-based
Conditions: 0.5 mM Bz-ATP; for remaining activity at 10 µM: P2X7, Table 2, 10 μM compound, read-out: PBMC 10 μM (% control); for PBMC 10 μM (% control): Table 3 (additional runs), 10 μM compound
Method: Human blood was collected using a blood donor program. […] Cells were incubated for an additional 1.5 hours. […] Data are analyzed and graphed on Graphpad Prism 5. […] The IC50 for each compound is then uploaded into 3DX.

P2X7, sequence (Q99572 whole entry): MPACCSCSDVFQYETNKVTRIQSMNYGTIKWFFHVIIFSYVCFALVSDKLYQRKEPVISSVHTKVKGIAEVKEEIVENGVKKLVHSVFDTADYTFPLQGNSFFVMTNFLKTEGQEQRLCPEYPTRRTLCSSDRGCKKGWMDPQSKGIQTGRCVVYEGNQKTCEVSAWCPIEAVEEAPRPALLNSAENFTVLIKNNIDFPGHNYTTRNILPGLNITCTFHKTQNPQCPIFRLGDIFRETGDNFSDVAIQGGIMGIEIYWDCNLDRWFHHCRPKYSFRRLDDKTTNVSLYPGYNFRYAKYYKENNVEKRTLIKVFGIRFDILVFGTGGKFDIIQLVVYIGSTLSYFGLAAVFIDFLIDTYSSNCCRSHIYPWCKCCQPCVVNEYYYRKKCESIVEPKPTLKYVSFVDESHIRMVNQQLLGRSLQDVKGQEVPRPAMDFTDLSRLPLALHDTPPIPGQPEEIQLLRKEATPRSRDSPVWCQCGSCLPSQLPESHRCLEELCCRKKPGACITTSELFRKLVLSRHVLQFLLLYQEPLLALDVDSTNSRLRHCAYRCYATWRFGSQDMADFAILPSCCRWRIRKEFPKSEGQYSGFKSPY

Row | SMILES | remaining activity at 10 µM | PBMC 10 μM (% control)
1 | Cc1nc2c(c(-c3ccn[nH]3)n1)C[C@@H](C)N(C(=O)c1cccc(C(F)(F)F)c1Cl)C2 (single isomer, unassigned) [Example 58, (6R*)-7-{[2-Chloro-3-(trifluoromethyl)phenyl]carbonyl}-2,6-dimethyl-4-(1H-pyrazol-5-yl)-5,6,7,8-tetrahydropyrido[3,4-d]pyrimidine] | 5% | 5.0 % control
2 | Cc1nc2c(c(-c3ccn[nH]3)n1)C[C@H](C)N(C(=O)c1cccc(C(F)(F)F)c1Cl)C2 (single isomer, unassigned) [Example 59, (6S*)-7-{[2-Chloro-3-(trifluoromethyl)phenyl]carbonyl}-2,6-dimethyl-4-(1H-pyrazol-5-yl)-5,6,7,8-tetrahydropyrido[3,4-d]pyrimidine] | 2.8% | 2.8 % control
3 | Cc1nc2c(c(-c3ccn[nH]3)n1)C[C@H](C)N(C(=O)c1ccc(F)c(C(F)(F)F)c1Cl)C2 (single isomer, unassigned) [Example 65, (S*)-(2-chloro-4-fluoro-3-(trifluoromethyl)phenyl)(2,6-dimethyl-4-(1H-pyrazol-5-yl)-5,6-dihydropyrido[3,4-d]pyrimidin-7(8H)-yl)methanone] | 3.9% | 3.9 % control
4 | Cc1nc2c(c(-c3ccn[nH]3)n1)C[C@@H](C)N(C(=O)c1ccc(F)c(C(F)(F)F)c1Cl)C2 (single isomer, unassigned) [Example 66, (R*)-(2-chloro-4-fluoro-3-(trifluoromethyl)phenyl)(2,6-dimethyl-4-(1H-pyrazol-5-yl)-5,6-dihydropyrido[3,4-d]pyrimidin-7(8H)-yl)methanone] | -6.1% | −6.1 % control
5 | Cc1nc2c(c(-c3ccn[nH]3)n1)C[C@@H](C)N(C(=O)c1cccc(Cl)c1Cl)C2 (single isomer, unassigned) [Example 68, (R*)-(2,3-dichlorophenyl)(2,6-dimethyl-4-(1H-pyrazol-5-yl)-5,6-dihydropyrido[3,4-d]pyrimidin-7(8H)-yl)methanone] | -0.5% | −0.5 % control
6 | Cc1nc2c(c(-c3ccn[nH]3)n1)C[C@H](C)N(C(=O)c1cccc(Cl)c1Cl)C2 (single isomer, unassigned) [Example 69, (S*)-(2,3-dichlorophenyl)(2,6-dimethyl-4-(1H-pyrazol-5-yl)-5,6-dihydropyrido[3,4-d]pyrimidin-7(8H)-yl)methanone] | -6.2% | −6.2 % control
7 | Cc1nc2c(c(-c3ccn[nH]3)n1)C[C@@H](C)N(C(=O)c1cccc(C(F)(F)F)c1F)C2 (single isomer, unassigned) [Example 75, (R*)-(2,6-dimethyl-4-(1H-pyrazol-5-yl)-5,6-dihydropyrido[3,4-d]pyrimidin-7(8H)-yl)(2-fluoro-3-(trifluoromethyl)phenyl)methanone] | 2.4% | 2.4 % control
8 | Cc1nc2c(c(-c3ccn[nH]3)n1)C[C@H](C)N(C(=O)c1cccc(C(F)(F)F)c1C)C2 (single isomer, unassigned) [Example 79, (S*)-(2,6-dimethyl-4-(1H-pyrazol-5-yl)-5,6-dihydropyrido[3,4-d]pyrimidin-7(8H)-yl)(2-methyl-3-(trifluoromethyl)phenyl)methanone] | 2.6% | 2.6 % control
9 | Cc1nc2c(c(-c3ccn[nH]3)n1)C[C@@H](C)N(C(=O)c1ccc(F)c(Cl)c1Cl)C2 (single isomer, unassigned) [Example 81, (R*)-(2,3-dichloro-4-fluorophenyl)(2,6-dimethyl-4-(1H-pyrazol-5-yl)-5,6-dihydropyrido[3,4-d]pyrimidin-7(8H)-yl)methanone] | 21% | 21.0 % control
10 | Cc1nc2c(c(-c3ccn[nH]3)n1)C[C@@H](C)N(C(=O)c1ccc(Cl)cc1Cl)C2 (single isomer, unassigned) [Example 84, (R*)-(2,4-dichlorophenyl)(2,6-dimethyl-4-(1H-pyrazol-5-yl)-5,6-dihydropyrido[3,4-d]pyrimidin-7(8H)-yl)methanone] | 7.5% | 7.5 % control
11 | Cc1nc2c(c(-c3ccn[nH]3)n1)C[C@H](C)N(C(=O)c1ccc(Cl)cc1Cl)C2 (single isomer, unassigned) [Example 85, (S*)-(2,4-dichlorophenyl)(2,6-dimethyl-4-(1H-pyrazol-5-yl)-5,6-dihydropyrido[3,4-d]pyrimidin-7(8H)-yl)methanone] | -0.8% | −0.8 % control
12 | Cc1nc2c(c(-c3ccn[nH]3)n1)C[C@@H](C)N(C(=O)c1ccc(Cl)cc1F)C2 (single isomer, unassigned) [Example 88, (R*)-(4-chloro-2-fluorophenyl)(2,6-dimethyl-4-(1H-pyrazol-5-yl)-5,6-dihydropyrido[3,4-d]pyrimidin-7(8H)-yl)methanone] | 49.4% | –
13 | Cc1nc2c(c(-c3ccn[nH]3)n1)C[C@@H](C)N(C(=O)c1ccc(F)cc1F)C2 (single isomer, unassigned) [Example 94, (R*)-(2,4-difluorophenyl)(2,6-dimethyl-4-(1H-pyrazol-5-yl)-5,6-dihydropyrido[3,4-d]pyrimidin-7(8H)-yl)methanone] | 71.8% | –

Further lines, results first:

Row | remaining activity at 10 µM | PBMC 10 μM (% control) | SMILES
14 | 14.3% | – | Cc1nc2c(c(-c3ccn[nH]3)n1)C[C@H](C)N(C(=O)c1cccc(C(F)(F)F)c1F)C2 (single isomer, unassigned) [Example 76, (S*)-(2,6-dimethyl-4-(1H-pyrazol-5-yl)-5,6-dihydropyrido[3,4-d]pyrimidin-7(8H)-yl)(2-fluoro-3-(trifluoromethyl)phenyl)methanone]
15 | 1.4% | 1.4 % control | Cc1nc2c(c(-c3ccn[nH]3)n1)C[C@@H](C)N(C(=O)c1cccc(C(F)(F)F)c1C)C2 (single isomer, unassigned) [Example 78, (R*)-(2,6-dimethyl-4-(1H-pyrazol-5-yl)-5,6-dihydropyrido[3,4-d]pyrimidin-7(8H)-yl)(2-methyl-3-(trifluoromethyl)phenyl)methanone]
16 | -1% | −1.0 % control | Cc1nc2c(c(-c3ccn[nH]3)n1)C[C@H](C)N(C(=O)c1ccc(F)c(Cl)c1Cl)C2 (single isomer, unassigned) [Example 82, (S*)-(2,3-dichloro-4-fluorophenyl)(2,6-dimethyl-4-(1H-pyrazol-5-yl)-5,6-dihydropyrido[3,4-d]pyrimidin-7(8H)-yl)methanone]
17 | -8.8% | −8.8 % control | Cc1nc2c(c(-c3ccn[nH]3)n1)C[C@@H](C)N(C(=O)c1ccc(F)cc1Cl)C2 (single isomer, unassigned) [Example 91, (R*)-(2-chloro-4-fluorophenyl)(2,6-dimethyl-4-(1H-pyrazol-5-yl)-5,6-dihydropyrido[3,4-d]pyrimidin-7(8H)-yl)methanone]
18 | 9.4% | 9.4 % control | Cc1nc2c(c(-c3ccn[nH]3)n1)C[C@H](C)N(C(=O)c1ccc(F)cc1Cl)C2 (single isomer, unassigned) [Example 92, (S*)-(2-chloro-4-fluorophenyl)(2,6-dimethyl-4-(1H-pyrazol-5-yl)-5,6-dihydropyrido[3,4-d]pyrimidin-7(8H)-yl)methanone]
